The record followed here is patent US20250228239A1, “MOLECULES HAVING PESTICIDAL UTILITY, AND INTERMEDIATES, COMPOSITIONS, AND PROCESSES, RELATED THERETO” (priority 2024, published 2025).

What all share (assay type): in vivo
For series [1], the system named is Yellow Fever Mosquito (Aedes aegypti, AEDSAE). The conditions noted are these: for YFM rating: Table ABC / ABC-DP rating. The essentials: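 Compounds from 4000 ppm DMSO stocks were diluted in 90:10 water/acetone and dispensed into wells, then infested with about 1-day-old larvae in liver-powder water. Covered plates were held at room temperature for 3 days and each well was scored for mortality against a rating scale; six replicate plates per compound.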

Series [2] relates to Beet Armyworm (Spodoptera exigua, LAPHEG). Kind of series: Bioassays on Beet Armyworm (BAW), 128-well diet tray assay. The following applies: Spodoptera exigua. In a few lines: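 Percent larval mortality, averaged across eight wells, scored after five to seven days at 25° C. under 14:10 light-dark. Each well held one to five second instars feeding on diet dosed at 50 μg/cm^2 with compound from 90:10 acetone-water, solvent dried off.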

The test system of series [3] is Cabbage Looper (Trichoplusia ni, TRIPNI). The series is described as follows: Bioassays on Cabbage Looper (CL), 128-well diet tray assay. The conditions noted are these: Trichoplusia ni. In a few lines: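 Test molecule was dissolved in 90:10 acetone-water, applied to artificial diet at 50 μg/cm^2 and allowed to dry. Second-instar larvae were then added, one to five per well, and trays held at 25° C for five to seven days before mortality was scored and averaged.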

[4] abbreviates: Beet Armyworm, Table ABC / ABC-DP rating, read-out: BAW rating.
[5] abbreviates: Cabbage Looper, Table ABC / ABC-DP rating, read-out: CL rating.
The mark [6] stands for this setting: Yellow Fever Mosquito, rating class.
[7] abbreviates: Beet Armyworm, rating class, read-out: BAW.
The mark [8] stands for this setting: Cabbage Looper, rating class, read-out: CL.
Where [9] appears, read: Table ABC: Biological Results, species YFM.
Setting [10] is: Table ABC: Biological Results, species BAW, read-out: BAW.
The mark [11] stands for this setting: Table ABC: Biological Results, species CL, read-out: CL.

Like-named read-outs stand apart in the source and are kept apart here.

In the case of `COCC(C)NNC(=O)c1cc(NC(=O)[C@H]2[C@H](c3cc(Cl)cc(Cl)c3)C2(Cl)Cl)ccc1Cl` (relative stereo) [F2551, trans-2,2-Dichloro-N-(4-chloro-3-(2-(1-methoxypropan-2-yl)hydrazine-1-carbonyl)phenyl)-3-(3,5-dichlorophenyl)cyclopropane-1-carboxamide], in series [1] (Yellow Fever Mosquito), the YFM rating result was “A (80–100)”. Besides, the pest or weed control at 50 µg/cm2 in series [2] (setting [4]) and in series [3] (setting [5]) was 50 to 100% in each case.

On to `O=C(NCCC(F)(F)F)c1c(F)ccc(NC(=O)[C@H]2[C@H](c3ccc(F)c(Cl)c3)C2(Cl)Cl)c1F` (relative stereo) [F2023, trans-3-(2,2-Dichloro-3-(3-chloro-4-fluorophenyl)cyclopropane-1-carboxamido)-2,6-difluoro-N-(3,3,3-trifluoropropyl)benzamide], for which the YFM rating entry in series [1] (Yellow Fever Mosquito) was “A (80–100)”. Also, the pest or weed control at 50 µg/cm2 in series [2] (setting [4]) and in series [3] (setting [5]) was 50 to 100% in each case.

For `O=C(Nc1ccc(F)c(NC(=O)C2CCCO2)c1F)c1cc(NC(=O)[C@H]2[C@H](c3cc(F)cc(C(F)(F)F)c3)C2(Cl)Cl)ccc1Cl` (stereo partly drawn) [F1706, N-(3-(2-Chloro-5-((1R,3R)-2,2-dichloro-3-(3-fluoro-5-(trifluoromethyl)phenyl)cyclopropane-1-carboxamido)benzamido)-2,6-difluorophenyl)tetrahydrofuran-2-carboxamide], the YFM result in series [1] (setting [6]) is reported as “A (80–100)”. Besides, the pest or weed control at 50 µg/cm2 in series [2] (setting [7]) and in series [3] (setting [8]) was 50 to 100% in each case.

With `Cl.NNC(=O)c1cc(NC(=O)[C@H]2[C@H](c3cc(Cl)cc(Cl)c3)C2(Cl)Cl)ccc1Cl` (relative stereo) [F2567, trans-2,2-dichloro-N-(4-chloro-3-(hydrazinecarbonyl)phenyl)-3-(3,5-dichlorophenyl)cyclopropane-1-carboxamide hydrochloride], the YFM rating entry in series [1] (Yellow Fever Mosquito) is listed as “A (80–100)”. In addition, the “YFM % Control (or Mortality) rating” value in series [1] (about 1 day-old larvae, 4000 ppm master solution diluted with 90:10 water/acetone, 15 μL per well plus 220 μL larval mixture, 3 days, mortality) is given as “A (80–100)”. Besides, the mortality (as a rule, the share of the test organisms that died) at 50 µg/cm2 was 50 to 100% in series [2] (168 h, second instar larvae, 50 μg/cm^2 of test molecule on artificial diet, 25° C., five to seven days, average of eight wells, read-out: BAW % Control (or Mortality) rating) and 50 to 100% in series [3] (168 h, second instar larvae, 50 μg/cm^2 of test molecule on artificial diet, 25° C., five to seven days, average of eight wells, read-out: CL % Control (or Mortality) rating). In addition, the pest or weed control at 50 µg/cm2 in series [2] (setting [4]) and in series [3] (setting [5]) was 50 to 100% in each case.

Take `CC(=O)N(C)c1c(F)ccc(NC(=O)c2cc(NC(=O)[C@H]3[C@H](c4ccc(F)c(C(F)(F)F)c4)C3(Cl)Cl)ccc2Cl)c1F` [F1506, 2-Chloro-5-((1R,3R)-2,2-dichloro-3-(4-fluoro-3-(trifluoromethyl)phenyl)cyclopropane-1-carboxamido)-N-(2,4-difluoro-3-(N-methylacetamido)phenyl)benzamide]: in series [1] (setting [6]), the YFM entry was “A (80–100)”. In addition, the pest or weed control at 50 µg/cm2 in series [2] (setting [7]) and in series [3] (setting [8]) was 50 to 100% in each case.

In the case of `O=C(Nc1ccccc1)c1cc(NC(=O)[C@H]2[C@H](c3ccc(F)c(C(F)(F)F)c3)C2(Cl)Cl)c(F)cc1Cl` [F1723, 2-Chloro-5-((1R,3R)-2,2-dichloro-3-(4-fluoro-3-(trifluoromethyl)phenyl)cyclopropane-1-carboxamido)-4-fluoro-N-phenylbenzamide], the YFM result in series [1] (setting [6]) is reported as “A (80–100)”. Moreover, the pest or weed control at 50 µg/cm2 in series [2] (setting [7]) and in series [3] (setting [8]) was 50 to 100% in each case.

For the compound `CCOC(=O)C(F)(F)CNC(=O)c1cc(NC(=O)[C@H]2[C@H](c3cc(Cl)cc(Cl)c3)C2(Cl)Cl)cc(F)c1Cl` (relative stereo) [F2089, trans-Ethyl 3-(2-chloro-5-(2,2-dichloro-3-(3,5-dichlorophenyl)cyclopropane-1-carboxamido)-3-fluorobenzamido)-2,2-difluoropropanoate], in series [1] (Yellow Fever Mosquito), the YFM rating entry is “A (80–100)”. Moreover, the pest or weed control at 50 µg/cm2 in series [2] (setting [4]) and in series [3] (setting [5]) was 50 to 100% in each case.

As for `O=C(NCC(F)(F)F)c1cc(NC(=O)[C@H]2[C@H](c3ccc(F)c(Cl)c3)C2(Cl)Cl)cc(C(F)(F)F)c1Cl` (relative stereo) [F2054, trans-2-Chloro-5-(2,2-dichloro-3-(3-chloro-4-fluorophenyl)cyclopropane-1-carboxamido)-N-(2,2,2-trifluoroethyl)-3-(trifluoromethyl)benzamide], the YFM rating result in series [1] (Yellow Fever Mosquito) is given as “A (80–100)”. The pest or weed control at 50 µg/cm2 in series [2] (setting [4]) and in series [3] (setting [5]) was 50 to 100% each time.

For `Nc1cc(NC(=O)c2cc(NC(=O)[C@H]3[C@H](c4ccc(F)c(Cl)c4)C3(Cl)Cl)ccc2Cl)ccc1Cl` (relative stereo) [F1365, trans-N-(3-Amino-4-chlorophenyl)-2-chloro-5-(2,2-dichloro-3-(3-chloro-4-fluorophenyl)cyclopropane-1-carboxamido)benzamide], the YFM result in series [1] (setting [9]) is “A (80–100)”. In addition, the pest or weed control at 50 µg/cm2 in series [2] (setting [10]) and in series [3] (setting [11]) was 50 to 100% throughout.

As for `O=C(Nc1ccc(F)cc1F)c1cc(NC(=O)[C@H]2[C@H](c3cccc(S(F)(F)(F)(F)F)c3)C2(Cl)Cl)ccc1Cl` (relative stereo) [F1090, trans-2-Chloro-5-(2,2-dichloro-3-(3-(pentafluoro-λ^6-sulfanyl)phenyl)cyclopropane-1-carboxamido)-N-(2,4-difluorophenyl)benzamide], the YFM entry in series [1] (setting [9]) is listed as “A (80–100)”. Besides, the pest or weed control at 50 µg/cm2 in series [2] (setting [10]) and in series [3] (setting [11]) was 50 to 100% each time.

On to `Nc1c(F)ccc(NC(=O)c2cc(NC(=O)[C@H]3[C@H](c4cc(Cl)c(F)c(Cl)c4)C3(Cl)Cl)ccc2Cl)c1F` (relative stereo) [F1181, trans-N-(3-Amino-2,4-difluorophenyl)-2-chloro-5-(2,2-dichloro-3-(3,5-dichloro-4-fluorophenyl)cyclopropane-1-carboxamido)benzamide], for which, in series [1] (setting [9]), the YFM entry is “A (80–100)”. In addition, the pest or weed control at 50 µg/cm2 in series [2] (setting [10]) and in series [3] (setting [11]) was 50 to 100% each time.

Consider `CC(=O)CNC(=O)c1cc(NC(=O)[C@H]2[C@H](c3cc(Cl)cc(Cl)c3)C2(Cl)Cl)cc(F)c1Cl` (relative stereo) [F2090, trans-2-Chloro-5-(2,2-dichloro-3-(3,5-dichlorophenyl)cyclopropane-1-carboxamido)-3-fluoro-N-(2-oxopropyl)benzamide], for which, in series [1] (Yellow Fever Mosquito), the YFM rating entry is on record as “A (80–100)”. The pest or weed control at 50 µg/cm2 in series [2] (setting [4]) and in series [3] (setting [5]) was 50 to 100% throughout.

On to `O=C(CCC(F)(F)F)Nc1c(F)ccc(NC(=O)c2cc(NC(=O)[C@H]3[C@H](c4ccc(F)c(C(F)(F)F)c4)C3(Cl)Cl)ccc2Cl)c1F` [F1800, 2-Chloro-5-((1R,3R)-2,2-dichloro-3-(4-fluoro-3-(trifluoromethyl)phenyl)cyclopropane-1-carboxamido)-N-(2,4-difluoro-3-(4,4,4-trifluorobutanamido)phenyl)benzamide], for which the YFM rating entry in series [1] (Yellow Fever Mosquito) was “A (80–100)”. Moreover, the pest or weed control at 50 µg/cm2 in series [2] (setting [4]) and in series [3] (setting [5]) was 50 to 100% each time.

For the compound `O=C(NCCCCNC(=O)C(F)(F)C(F)(F)F)c1cc(NC(=O)[C@H]2[C@H](c3cc(Cl)cc(Cl)c3)C2(Cl)Cl)ccc1Cl` (relative stereo) [F2098, trans-2-Chloro-5-(2,2-dichloro-3-(3,5-dichlorophenyl)cyclopropane-1-carboxamido)-N-(4-(2,2,3,3,3-pentafluoropropanamido)butyl)benzamide], in series [1] (Yellow Fever Mosquito), the YFM rating entry is listed as “B (More than 0 – Less than 80)”. The pest or weed control at 50 µg/cm2 in series [2] (setting [4]) and in series [3] (setting [5]) was 50 to 100% in each case.
